Experimental data as given in patent US20100168079A1 (priority 2008, published 2010).

Target: T1, human S1P1 receptors (Homo sapiens, UniProt P21453)
T1 construct: myc (N); expressed in transfected cells; host or cells: HeLa (human cervix carcinoma, ATCC CCL2), HeLa-S1P1/Gα16 cell clone 1
Experiment: Human S1P1 Receptor Calcium FLIPR Antagonist Assay (HeLa Gα16 S1P1)
Assay type: cell-based
Conditions: relative antagonism of Ca2+ signal evoked by probing agonist GNF-AC-1 at EC80; HeLa-S1P1/Gα16 cells
Protocol: Human S1P1 Receptor Calcium FLIPR Antagonist Assay
The cells are plated in 384 well black plates (10′000 cells per well). […] After washing, the cells are transferred to the FLIPR. The test compounds are added at different concentrations […]) in HBSS in the presence of 0.1% BSA and changes in fluorescence are recorded (indication of agonism). The probing agonist is added 20-30 minutes afterwards to the wells at a concentration giving 80% of the maximal activity (EC80). After each addition, time points are collected as follows: 20 time points (2 seconds) before the addition of the agonist (Fmin) and 60 time points (1 or 2 seconds) after the addition of the probing agonist. This allows the determination of the maximal fluorescence (Fmax). The ratio (Fmax-Fmin)/Fmin is plotted against the log of the concentration of the test compounds and the IC50 (relative antagonism) is calculated using the XLfit-4 software. […] A concentration-response curve of the probing agonist is determined on each plate in parallel.

T1 sequence (P21453 whole entry): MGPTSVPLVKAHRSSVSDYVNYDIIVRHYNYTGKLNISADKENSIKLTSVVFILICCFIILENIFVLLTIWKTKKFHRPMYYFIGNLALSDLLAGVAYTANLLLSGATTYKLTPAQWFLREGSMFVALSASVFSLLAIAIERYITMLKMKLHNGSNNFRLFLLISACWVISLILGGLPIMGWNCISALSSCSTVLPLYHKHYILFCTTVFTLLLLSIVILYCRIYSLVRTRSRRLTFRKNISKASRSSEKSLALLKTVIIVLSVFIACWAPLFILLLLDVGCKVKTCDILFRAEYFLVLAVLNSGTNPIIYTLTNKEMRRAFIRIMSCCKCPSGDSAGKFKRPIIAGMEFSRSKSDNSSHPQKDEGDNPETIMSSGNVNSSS

SMILES | IC50 [nM]
Cc1cc(-c2cccc(NC(C)c3ccc(Cl)c(F)c3)c2)cc(C)c1C(=O)N[C@@H](C)C(=O)O (stereo partly drawn) [Example 9, (S)-2-({3′-[1-(4-Chloro-3-fluoro-phenyl)-ethylamino]-3,5-dimethyl-biphenyl-4-carbonyl}-amino)-propionic acid] | 3
Cc1ccc(C(C)Nc2cccc(-c3cc(C)c(C(=O)N[C@@H](C)C(=O)O)c(C)c3)c2)cc1C (stereo partly drawn) [Example 11, (S)-2-({3′-[1-(3,4-Dimethylphenyl)-ethylamino]-3,5-dimethyl-biphenyl-4-carbonyl}-amino)-propionic acid] | 4
Cc1cc(C(C)Nc2cccc(-c3cc(C)c(C(=O)N[C@@H](C)C(=O)O)c(C)c3)c2)c(C)cc1Cl (stereo partly drawn) [Example 13, (S)-2-({3′-[1-(4-Chloro-2,5-dimethyl-phenyl)-ethylamino]-3,5-dimethyl-biphenyl-4-carbonyl}-amino)-propionic acid] | 5
Cc1cc(-c2cccc(NC(C)c3ccc(Cl)c(C(F)(F)F)c3)c2)cc(C)c1C(=O)N[C@@H](C)C(=O)O (stereo partly shown) [Example 14] | 4
Cc1cc(-c2cccc(NC(C)c3ccc(F)c(OC(F)(F)F)c3)c2)cc(C)c1C(=O)N[C@@H](C)C(=O)O (stereo partly drawn) [Example 17, (S)-2-({3′-[1-(4-Fluoro-3-trifluoromethoxy-phenyl)-ethylamino]-3,5-dimethyl-biphenyl-4-carbonyl}-amino)-propionic acid] | 5
COc1ccc(C(C)Nc2cccc(-c3cc(C)c(C(=O)N[C@@H](C)C(=O)O)c(C)c3)c2)cc1F (stereo partly drawn) [Example 18, (S)-2-({3′-[1-(3-Fluoro-4-methoxy-phenyl)-ethylamino]-3,5-dimethyl-biphenyl-4-carbonyl}-amino)-propionic acid] | 4
Cc1cc(C)cc(C(C)Nc2cccc(-c3cc(C)c(C(=O)N[C@@H](C)C(=O)O)c(C)c3)c2)c1 (stereo partly drawn) [Example 28, (S)-2-({3′-[1-(3,5-Dimethyl-phenyl)-ethylamino]-3,5-dimethyl-biphenyl-4-carbonyl}-amino)-propionic acid] | 3
COc1c(F)cc(C(C)Nc2cccc(-c3cc(C)c(C(=O)N[C@@H](C)C(=O)O)c(C)c3)c2)cc1F (stereo partly drawn) [Example 34, (S)-2-({3′-[1-(3,5-Difluoro-4-methoxy-phenyl)-ethylamino]-3,5-dimethyl-biphenyl-4-carbonyl}-amino)-propionic acid] | 3
COc1ccc(C(C)Nc2cccc(-c3cc(C)c(C(=O)N[C@@H](C)C(=O)O)c(C)c3)c2)c(F)c1 (stereo partly drawn) [Example 35, (S)-2-({3′-[1-(2-Fluoro-4-methoxy-phenyl)-ethylamino]-3,5-dimethyl-biphenyl-4-carbonyl}-amino)-propionic acid] | 8
COc1c(C)cc(C(C)Nc2cccc(-c3cc(C)c(C(=O)N[C@@H](C)C(=O)O)c(C)c3)c2)cc1C (stereo partly drawn) [Example 37, (S)-2-({3′-[1-(4-Methoxy-3,5-dimethyl-phenyl)-ethylamino]-3,5-dimethyl-biphenyl-4-carbonyl}-amino)-propionic acid] | 2
Cc1cc([C@@H](C)Nc2cccc(-c3ccc(C(=O)N[C@@H](C)C(=O)O)c(C)c3)c2)ccc1Cl [Example 40, (S)-2-({3′-[(R)-1-(4-Chloro-3-methyl-phenyl)-ethylamino]-3-methyl-biphenyl-4-carbonyl}-amino)-propionic acid] | 2
CCc1cc(-c2cccc(NC(C)c3ccc(Cl)c(C)c3)c2)ccc1C(=O)N[C@@H](C)C(=O)O (stereo partly drawn) [Example 42, (S)-2-({3′-[1-(4-Chloro-3-methyl-phenyl)-ethylamino]-3-ethyl-biphenyl-4-carbonyl}-amino)-propionic acid] | 3
CCc1cc(-c2cccc(NC(C)c3ccc(Cl)c(C)c3)c2)ccc1C(=O)N(C)[C@@H](C)C(=O)O (stereo partly drawn) [Example 43, (S)-2-({3′-[1-(4-Chloro-3-methyl-phenyl)-ethylamino]-3-ethyl-biphenyl-4-carbonyl}-methyl-amino)-propionic acid] | 3
CCc1cc(-c2cccc(NC(C)c3cc(C)c(Cl)c(C)c3)c2)ccc1C(=O)N(C)[C@@H](C)C(=O)O (stereo partly drawn) [Example 45, (S)-2-({3′-[1-(4-Chloro-3,5-dimethyl-phenyl)-ethylamino]-3-ethyl-biphenyl-4-carbonyl}-methyl-amino)-propionic acid] | 5
Cc1cc(C(C)Nc2cccc(-c3ccc(C(=O)N[C@@H](C)C(=O)O)c(Cl)c3)c2)ccc1Cl (stereo partly drawn) [Example 46, (S)-2-({3-Chloro-3′-[1-(4-chloro-3-methyl-phenyl)-ethylamino]-biphenyl-4-carbonyl}-amino)-propionic acid] | 2
Cc1cc(C(C)Nc2cccc(-c3ccc(C(=O)N(C)[C@@H](C)C(=O)O)c(Cl)c3)c2)ccc1Cl (stereo partly drawn) [Example 47, (S)-2-({3-Chloro-3′-[1-(4-chloro-3-methyl-phenyl)-ethylamino]-biphenyl-4-carbonyl}-methyl-amino)-propionic acid] | 2
Cc1cc(C(C)Nc2cccc(-c3ccc(C(=O)N(C)[C@@H](C)C(=O)O)c(F)c3)c2)ccc1Cl (stereo partly drawn) [Example 49, (S)-2-({3′-[1-(4-Chloro-3-methyl-phenyl)-ethylamino]-3-fluoro-biphenyl-4-carbonyl}-methyl-amino)-propionic acid] | 3
Cc1cc(C(C)Nc2cccc(-c3cc(F)c(C(=O)N[C@@H](C)C(=O)O)c(F)c3)c2)ccc1Cl (stereo partly drawn) [Example 50, (S)-2-({3′-[1-(4-Chloro-3-methyl-phenyl)-ethylamino]-3,5-difluoro-biphenyl-4-carbonyl}-amino)-propionic acid] | 3
Cc1cc(C(C)Nc2cccc(-c3cc(F)c(C(=O)N(C)[C@@H](C)C(=O)O)c(F)c3)c2)ccc1Cl (stereo partly drawn) [Example 51, (S)-2-({3′-[1-(4-Chloro-3-methyl-phenyl)-ethylamino]-3,5-difluoro-biphenyl-4-carbonyl}-methyl-amino)-propionic acid] | 6

The remaining lines, values ahead:

IC50 [nM] | SMILES
2 | COc1ccc(C(C)Nc2cccc(-c3cc(C)c(C(=O)N[C@@H](C)C(=O)O)c(C)c3)c2)cc1Cl (stereo partly drawn) [Example 1, (S)-2-({3′-[1-(3-Chloro-4-methoxy-phenyl)-ethylamino]-3,5-dimethyl-biphenyl-4-carbonyl}-amino)-propionic acid]
2 | CCC(Nc1cccc(-c2cc(C)c(C(=O)N[C@@H](C)C(=O)O)c(C)c2)c1)c1ccc(Cl)c(C)c1 (stereo partly drawn) [Example 5, (S)-2-({3′-[1-(4-Chloro-3-methyl-phenyl)-propylamino]-3,5-dimethyl-biphenyl-4-carbonyl}-amino)-propionic acid]
2 | Cc1cc(-c2cccc(NC(C)c3ccc(Cl)c(Cl)c3)c2)cc(C)c1C(=O)N[C@@H](C)C(=O)O (stereo partly shown) [Example 10]
2 | COc1cc(C(C)Nc2cccc(-c3cc(C)c(C(=O)N[C@@H](C)C(=O)O)c(C)c3)c2)ccc1F (stereo partly drawn) [Example 15, (S)-2-({3′-[1-(4-Fluoro-3-methoxy-phenyl)-ethylamino]-3,5-dimethyl-biphenyl-4-carbonyl}-amino)-propionic acid]
2 | Cc1cc(C(C)Nc2cccc(-c3cc(C)c(C(=O)N[C@@H](C)C(=O)O)c(C)c3)c2)c(F)cc1Cl (stereo partly drawn) [Example 16, (S)-2-({3′-[1-(4-Chloro-2-fluoro-5-methyl-phenyl)-ethylamino]-3,5-dimethyl-biphenyl-4-carbonyl}-amino)-propionic acid]
2 | Cc1cc(F)cc(C(C)Nc2cccc(-c3cc(C)c(C(=O)N[C@@H](C)C(=O)O)c(C)c3)c2)c1 (stereo partly drawn) [Example 19, (S)-2-({3′-[1-(3-Fluoro-5-methyl-phenyl)-ethylamino]-3,5-dimethyl-biphenyl-4-carbonyl}-amino)-propionic acid]
2 | Cc1cc(C(C)Nc2cccc(-c3cc(C)c(C(=O)N[C@@H](CO)C(=O)O)c(C)c3)c2)ccc1Cl (stereo partly drawn) [Example 21, (S)-2-({3′-[1-(4-Chloro-3-methyl-phenyl)-ethylamino]-3,5-dimethyl-biphenyl-4-carbonyl}-amino)-3-hydroxy-propionic acid]
2 | CCC(Nc1cccc(-c2cc(C)c(C(=O)NC3(C(=O)O)CC3)c(C)c2)c1)c1ccc(Cl)c(C)c1 (stereo not shown) [Example 27, 1-({3′-[1-(4-Chloro-3-methyl-phenyl)-propylamino]-3,5-dimethyl-biphenyl-4-carbonyl}-amino)-cyclopropanecarboxylic acid]
2 | Cc1cc(C(C)Nc2cccc(-c3cc(C)c(C(=O)N[C@@H](C)C(=O)O)c(C)c3)c2)cc(C)c1Cl (stereo partly drawn) [Example 29, (S)-2-({3′-[1-(4-Chloro-3,5-dimethyl-phenyl)-ethylamino]-3,5-dimethyl-biphenyl-4-carbonyl}-amino)-propionic acid]
2 | COc1ccc(C(C)Nc2cccc(-c3cc(C)c(C(=O)N[C@@H](C)C(=O)O)c(C)c3)c2)cc1C (stereo partly drawn) [Example 30, (S)-2-({3′-[1-(4-Methoxy-3-methyl-phenyl)-ethylamino]-3,5-dimethyl-biphenyl-4-carbonyl}-amino)-propionic acid]
1 | COc1ccc(C(C)Nc2cccc(-c3cc(C)c(C(=O)N[C@@H](C)C(=O)O)c(C)c3)c2)cc1C(F)(F)F (stereo partly drawn) [Example 33, (S)-2-({3′-[1-(4-Methoxy-3-trifluoromethyl-phenyl)-ethylamino]-3,5-dimethyl-biphenyl-4-carbonyl}-amino)-propionic acid]
2 | COc1c(F)cc(C(C)Nc2cccc(-c3cc(C)c(C(=O)N[C@@H](C)C(=O)O)c(C)c3)c2)cc1Cl (stereo partly drawn) [Example 36, (S)-2-({3′-[(3-Chloro-5-fluoro-4-methoxy-phenyl)-ethylamino]-3,5-dimethyl-biphenyl-4-carbonyl}-amino)-propionic acid]
